According to publication PMC3853281, “The Strawberry Pathogenesis-related 10 (PR-10) Fra a Proteins Control Flavonoid Biosynthesis by Binding to Metabolic Intermediates” (The Journal of Biological Chemistry, 2013):

Legend:
[1] = molecular target: T1, Fra a 1E (Fragaria x ananassa, UniProt Q256S2); assay: isothermal titration calorimetry; assay type: binding
T1 construct: gene FRAA1E.1; full-length ORF in pETM11, E. coli BL21(DE3); N-terminal His6 cut by TEV, Ala-Met-Ala left at N-terminus; monomer, 18 kDa by SEC-MALLS; residues 2-160 modelled

[2] = molecular target: T2, Fra a 2 (Fragaria x ananassa, UniProt D0E0C6); assay: isothermal titration calorimetry; assay type: binding
T2 construct: gene FRAA2; full-length ORF in pETM11, E. coli BL21(DE3); N-terminal His6 cut by TEV, Ala-Met-Ala left at N-terminus; apparent 28 kDa by SEC-MALLS
T2 sequence (D0E0C6 whole entry): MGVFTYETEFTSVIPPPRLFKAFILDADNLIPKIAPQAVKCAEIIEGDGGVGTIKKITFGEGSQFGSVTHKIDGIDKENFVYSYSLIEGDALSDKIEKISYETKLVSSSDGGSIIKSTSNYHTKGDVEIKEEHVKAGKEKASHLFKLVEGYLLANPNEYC

T1 sequence (Q256S2 whole entry, the tested form may be a part): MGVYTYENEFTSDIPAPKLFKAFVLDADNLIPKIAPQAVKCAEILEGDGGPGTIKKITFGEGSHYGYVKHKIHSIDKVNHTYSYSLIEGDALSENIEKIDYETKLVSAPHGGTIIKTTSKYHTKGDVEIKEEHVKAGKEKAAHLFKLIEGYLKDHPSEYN

| Kd [1] [µM] | Kd [2] [µM] | Structure (SMILES) |
| --- | --- | --- |
| 5.3 |  | O=C(O)[C@H]1O[C@@H](Oc2c(-c3ccc(O)c(O)c3)oc3cc(O)cc(O)c3c2=O)[C@H](O)[C@@H](O)[C@@H]1O [Quercetin-3-O-glucuronide] |
|  | 19.5 | O=c1c(O)c(-c2cc(O)c(O)c(O)c2)oc2cc(O)cc(O)c12 [myricetin] |
